Target: T1, acyltransferase from M. smegmatis (MsAcT) (Mycolicibacterium smegmatis, UniProt A0R5U7)
T1 construct: gene MSMEG_6317; His6-tagged, expressed in Escherichia coli, cell-free extract
Experiment: amide formation screen with cell-free extract
Format: cell-based
Conditions: co-substrate benzylamine 20 mM; ester 20 mM; buffer, 30 C

T1 sequence (A0R5U7 entry or part of it): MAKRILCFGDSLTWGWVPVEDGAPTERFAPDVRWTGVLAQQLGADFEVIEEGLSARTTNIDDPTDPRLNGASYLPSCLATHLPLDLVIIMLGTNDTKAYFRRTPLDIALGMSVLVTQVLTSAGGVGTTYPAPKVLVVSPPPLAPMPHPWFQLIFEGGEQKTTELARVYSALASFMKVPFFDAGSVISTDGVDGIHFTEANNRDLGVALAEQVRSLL

CCOC(=O)c1ccco1 [1e, ethyl 2-furoate]
amide formation screen with cell-free extract: MsAcT and variants displayed activity with ethyl 2-furoate 1e
